Measured values: US20150004134A1, “TREATMENT OF CANCER WITH HETEROCYCLIC INHIBITORS OF GLUTAMINASE” (Calithera Biosciences, Inc., priority 2012, published 2015)
Read-outs that look alike come from different tables or passages of the source.

Experiments:
P493-6 (myc "on") cells = assay: Cell Proliferation Assay; type: cell-based; conditions: P493-6, 72 h
Summary of the method: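 P493-6 cells with myc on, 10,000 per well in RPMI/10% FBS, exposed to serially diluted compound (0.5% DMSO final) for 72 h at 37 °C, 5% CO2. Antiproliferative effect read by Cell Titer Glo luminescence or Viacount FACS viability count.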

[1] = biological target: T1, recombinant form of Glutaminase 1 (GAC) (Homo sapiens, UniProt O94925); assay: Recombinant Enzyme Assay (no preincubation); type: biochemical; conditions: read-out: GAC Delta N2 IC50 no preinc;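 note: GDH-coupled GAC activity read as absorbance at 340 nm in kinetic mode over 15 min at 20 °C, slopes compared with a DMSO-only control, lower slope means inhibition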
T1 sequence (O94925 137-598 isoform O94925-3 limits assumed): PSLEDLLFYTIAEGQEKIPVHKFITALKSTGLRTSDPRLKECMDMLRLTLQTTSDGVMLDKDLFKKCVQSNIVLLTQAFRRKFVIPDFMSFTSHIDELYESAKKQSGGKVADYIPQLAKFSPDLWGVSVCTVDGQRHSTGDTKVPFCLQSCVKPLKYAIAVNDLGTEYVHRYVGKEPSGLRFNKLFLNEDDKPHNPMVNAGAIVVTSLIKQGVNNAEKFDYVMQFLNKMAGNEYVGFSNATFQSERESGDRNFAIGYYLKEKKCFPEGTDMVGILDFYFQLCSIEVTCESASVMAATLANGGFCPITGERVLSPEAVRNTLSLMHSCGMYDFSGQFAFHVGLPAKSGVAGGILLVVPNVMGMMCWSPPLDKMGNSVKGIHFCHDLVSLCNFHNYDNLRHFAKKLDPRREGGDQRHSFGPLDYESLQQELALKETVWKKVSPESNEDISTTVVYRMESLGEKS
Description: Compounds were assessed for their ability to inhibit the enzymatic activity of a recombinant form of Glutaminase 1 (GAC) using a biochemical assay that couples the production of glutamate (liberated by GAC) to glutamate dehydrogenase (GDH) and measuring the change in absorbance for the reduction of NAD^+ to NADH. […] Enzymatic reaction was started with the addition of 50 μL of enzyme solution (50 mM Tris-HCl pH 8.0, 0.2 mM EDTA, 150 mM K2HPO4, 0.1 mg/ml BSA, 1 mM DTT, 10 ppm antifoam, 4 units/ml GDH, 4 mM adenosine diphosphate, and 4 nM GAC) and read in a Molecular Devices M5 plate reader at 20° C. The plate reader was configured to read absorbance (λ=340 nm) in kinetic mode for 15 minutes. Data was recorded as milli-absorbance units per minute and slopes were compared to a control compound and a DMSO-only control on the same plate. Compounds with slopes less than the DMSO control were considered inhibitors and plate variability was assessed using the control compound.

[2] = biological target: T1, recombinant form of Glutaminase 1 (GAC); assay: Recombinant Enzyme Assay - Time Dependence (60 min preincubation); type: biochemical
Summary of the method: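 Enzyme and compound preincubated 60 min at 20° C; reaction started with substrate buffer (50 mM Tris-HCl pH 8.0, 150 mM K2HPO4, 1 mM DTT, 20 mM L-glutamine, 2 mM NAD^+). NADH formation followed at 340 nm in kinetic mode for 15 min at 20° C; slopes (mAU/min) compared with DMSO and control-compound wells.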

[3] = read-out: Cell prolif P493 72 h IC50, P493 cells, 72 h
[4] = read-out: GAC Delta N2 IC50 60 min preinc
[5] = read-out: Cell prolif P493 72 h IC50, P493-6 cells, 72 h

Row | Compound | IC50 (P493-6 (myc "on") cells; [3]) | IC50 [1] | IC50 [2, 4] | IC50 (P493-6 (myc "on") cells; [5]) | IC50 [2]
1 | O=C(Cc1ccccc1)Nc1ccc(CCCCc2nnc(NC(=O)Cc3cccnc3)s2)nn1 [Compound 355] | 39 nM | 100 nM | – | – | –
2 | O=C(Cc1ccccc1)Nc1ccc(CCCCc2nnc(NC(=O)Cc3cccc(OCCN4CCOCC4)c3)s2)nn1 [Compound 381] | 18 nM | 160 nM | – | – | –
3 | O=C(Cc1cccc(OCCO)c1)Nc1nnc(CCCCc2nnc(NC(=O)Cc3cccc(OCCO)c3)s2)s1 [Compound 235] | 210 nM | 110 nM | – | – | –
4 | COc1cccc(CC(=O)Nc2nnc(CCCCc3nnc(NC(=O)Cc4cccc(OC)c4)s3)s2)c1 [Compound 159] | 50 nM | 110 nM | – | – | –
5 | O=C(Cc1cccc(CN2CCNCC2)c1)Nc1nnc(CCSCc2nnc(NC(=O)Cc3cccc(CN4CCNCC4)c3)s2)s1 [Compound 276] | 56000 nM | 1500 nM | – | – | –
6 | O=C(Cc1ccccc1)Nc1ccc(CCCCc2nnc(NC(=O)Cc3ccc(O)c(Cl)c3)s2)nn1 [Compound 336] | 52 nM | 68 nM | – | – | –
7 | O=C(Cc1ccccc1)Nc1ccc(CCCCc2nnc(NC(=O)OCc3ccccc3)s2)nn1 [Compound 386] | 150 nM | 85 nM | – | – | –
8 | COc1cccc(CC(=O)Nc2ccc(CCCCc3nnc(NC(=O)Cc4ccccc4)s3)nn2)c1 [Compound 366] | 24 nM | 74 nM | – | – | –
9 | CC[C@@](O)(C(=O)Nc1nnc(CCCCc2nnc(NC(=O)[C@](O)(CC)c3ccccc3)s2)s1)c1ccccc1 [Compound 144] | – | > 20000 nM | – | – | –
10 | CC(C)(C)OC(=O)NC(C)(C)c1cccc(CC(=O)Nc2ccc(CCCCc3nnc(NC(=O)Cc4ccccc4)s3)nn2)c1 [Compound 631] | – | – | 5 nM | 6 nM | –
11 | CCN(CC)C(=O)COc1cccc(CC(=O)Nc2ccc(CCCCc3nnc(NC(=O)Cc4ccccc4)s3)nn2)c1 [Compound 646] | – | – | 7 nM | 37 nM | –
12 | CC(C)(O)CNC(=O)Cc1cccc(CC(=O)Nc2nnc(CCCCc3ccc(NC(=O)Cc4ccccc4)nn3)s2)c1 [Compound 514] | – | – | 9 nM | 63 nM | –
13 | CC(C)N(C)C(=O)Cc1cccc(CC(=O)Nc2nnc(CCCCc3ccc(NC(=O)Cc4ccccc4)nn3)s2)c1 [Compound 498] | – | – | 3 nM | 17 nM | –
14 | CCCN(C)C(=O)Cc1cccc(CC(=O)Nc2nnc(CCCCc3ccc(NC(=O)Cc4ccccc4)nn3)s2)c1 [Compound 484] | – | – | 3 nM | 11 nM | –
15 | O=C(Cc1cccc(Cl)c1)Nc1ccc(CCCCc2nnc(NC(=O)C(OC(=O)Cc3cccc(Cl)c3)c3cccc(Cl)c3)s2)nn1 (centres unmarked) [Compound 449] | – | – | 110 nM | 120 nM | –
16 | O=C(Cc1ccccc1)Nc1ccc(CCCCc2nnc(NC(=O)Cc3cccc(CNC(=O)C(O)C(F)(F)F)c3)s2)nn1 (centres unmarked) [Compound 577] | – | – | 4 nM | 34 nM | –
17 | CC(=O)NCc1cccc(CC(=O)Nc2nnc(CCCCc3ccc(NC(=O)Cc4ccccc4)nn3)s2)c1 [Compound 431] | – | – | 7 nM | 26 nM | –
18 | CC(C)(C)OC(=O)NCc1cccc(CC(=O)Nc2nnc(CCCCc3ccc(NC(=O)C(C)(C)C)nn3)s2)c1 [Compound 510] | – | – | 22 nM | 94 nM | –
19 | COC(=O)NCc1cccc(CC(=O)Nc2ccc(CCCCc3nnc(NC(=O)Cc4cccc(CNC(=O)OC)c4)s3)nn2)c1 [Compound 573] | – | – | 4 nM | 15 nM | –
20 | COC(=O)NCc1cccc(CC(=O)Nc2ccc(CCCCc3nnc(NC(=O)C(C)c4ccccc4)s3)nn2)c1 (centres unmarked) [Compound 553] | – | – | 5 nM | 19 nM | –
21 | Cc1ccccc1CC(=O)Nc1nnc(CCCCc2ccc(NC(=O)Cc3ccccc3)nn2)s1 [Compound 523] | – | – | 21 nM | 55 nM | –
22 | O=C(Cc1ccccc1)Nc1ccc(CCCCc2nnc(NC(=O)Cc3ccc(F)c(OCCO)c3)s2)nn1 [Compound 540] | – | – | 7 nM | 50 nM | –
23 | CC(NS(C)(=O)=O)c1cccc(CC(=O)Nc2ccc(CCCCc3nnc(NC(=O)Cc4ccccc4)s3)nn2)c1 (centres unmarked) [Compound 626] | – | – | – | 17 nM | 4 nM
24 | COc1ccc(CC(=O)Nc2nnc(CCCCc3ccc(NC(=O)Cc4ccccc4)nn3)s2)cc1F [Compound 544] | – | – | 6 nM | 44 nM | –
25 | CCOC(=O)Cc1cccc(CC(=O)Nc2ccc(CCCCc3nnc(NC(=O)Cc4ccccc4)s3)nn2)c1 [Compound 501] | – | – | 4 nM | 69 nM | –
26 | O=C(Cc1ccccc1)Nc1ccc(CCCCc2nnc(NC(=O)Cc3cccs3)s2)nn1 [Compound 503] | – | – | 8 nM | 150 nM | –

Row | Compound | IC50 (P493-6 (myc "on") cells; [3]) | IC50 [1] | IC50 [2, 4] | IC50 (P493-6 (myc "on") cells; [5]) | IC50 [2]
27 | O=C(Cc1ccccc1)Nc1ccc(CCCCc2nnc(NC(=O)Cc3cccc(OCCCO)c3)s2)nn1 [Compound 519] | – | – | 9 nM | 59 nM | –
28 | O=C(Cc1ccccc1)Nc1ccc(CCCCc2nnc(NC(=O)Cc3cccc(CCNC(=O)c4ccccc4)c3)s2)nn1 [Compound 455] | – | – | 3 nM | 12 nM | –
29 | CCC(=O)NC(C)c1cccc(CC(=O)Nc2ccc(CCCCc3nnc(NC(=O)Cc4ccccc4)s3)nn2)c1 (centres unmarked) [Compound 621] | – | – | – | 20 nM | 5 nM
30 | O=C(Cc1ccccc1)Nc1ccc(CCCCc2nnc(NC(=O)Cc3cccc(OC(CO)CO)c3)s2)nn1 [Compound 505] | – | – | 8 nM | 240 nM | –
31 | CCNC(=O)Nc1ccc(CCCCc2nnc(NC(=O)Cc3cccc(CN)c3)s2)nn1 [Compound 421] | – | – | 290 nM | 160 nM | –
32 | O=C(Nc1nnc(CCSCCc2nnc(NC(=O)[C@H]3C[C@@H]3c3ccccc3)s2)s1)C1C[C@@H]1c1ccccc1 (some centres unmarked) [Compound 91] | – | > 20000 nM | – | – | –
33 | CC(C)(C)OC(=O)NCCc1cccc(CC(=O)Nc2nnc(CCCCc3ccc(NC(=O)Cc4ccccc4)nn3)s2)c1 [Compound 429] | – | – | 4 nM | 7 nM | –
34 | CC(=O)Nc1cccc(CC(=O)Nc2nnc(CCCCc3ccc(NC(=O)Cc4ccccc4)nn3)s2)c1 [Compound 451] | – | – | 3 nM | 56 nM | –
35 | Nc1ccc(CCCCc2nnc(NC(=O)Cc3cccc(CNC(=O)c4ccccc4)c3)s2)nn1 [Compound 463] | – | – | 52 nM | 960 nM | –
36 | O=C(Cc1ccccc1)Nc1ccc(CCCCc2nnc(NC(=O)Cc3ccccc3Cl)s2)nn1 [Compound 522] | – | – | 23 nM | 60 nM | –
37 | COc1cccc(CC(=O)Nc2nnc(CCCCc3ccc(NC(=O)Cc4ccccc4)nn3)s2)c1OC [Compound 397] | – | – | 8 nM | 41 nM | –
38 | CC(=O)O[C@@H](C(=O)Nc1nnc(CCSCc2nnc(NC(=O)[C@H](OC(C)=O)c3ccccc3)s2)s1)c1ccccc1 [Compound 238] | – | 13000 nM | – | – | –
39 | CS(=O)(=O)Cc1cccc(CC(=O)Nc2ccc(CCCCc3nnc(NC(=O)Cc4ccccc4)s3)nn2)c1 [Compound 635] | – | – | 5 nM | 30 nM | –
40 | CC(N)c1cccc(CC(=O)Nc2nnc(CCCCc3ccc(NC(=O)Cc4ccccc4)nn3)s2)c1 (centres unmarked) [Compound 559] | – | – | 12 nM | 66 nM | –
41 | CC(C)(C)OC(=O)NCc1cccc(CC(=O)Nc2nnc(CCCCc3ccc(N)nn3)s2)c1 [Compound 412] | – | – | 28 nM | 110 nM | –
42 | NCc1ccccc1CC(=O)Nc1nnc(CCCCc2ccc(NC(=O)Cc3ccccc3)nn2)s1 [Compound 466] | – | – | 51 nM | 1300 nM | –
43 | CC(C(=O)NCc1cccc(CC(=O)Nc2nnc(CCCCc3ccc(NC(=O)Cc4ccccc4)nn3)s2)c1)c1ccc(O)cc1 (centres unmarked) [Compound 576] | – | – | 3 nM | 13 nM | –
44 | CC(=O)Nc1ccc(CCCCc2nnc(NC(=O)Cc3cccc(CNC(=O)OC(C)(C)C)c3)s2)nn1 [Compound 424] | – | – | 6 nM | 8 nM | –
45 | CCCNC(=O)Cc1cccc(CC(=O)Nc2nnc(CCCCc3ccc(NC(=O)Cc4ccccc4)nn3)s2)c1 [Compound 497] | – | – | 4 nM | 32 nM | –
46 | O=C(Cc1ccccc1)Nc1ccc(CCCCc2nnc(NC(=O)Cc3cccc(OC(F)(F)F)c3)s2)nn1 [Compound 413] | – | – | 7 nM | 45 nM | –
47 | O=C(CC(O)C(F)(F)F)NCc1cccc(CC(=O)Nc2nnc(CCCCc3ccc(NC(=O)Cc4ccccc4)nn3)s2)c1 (centres unmarked) [Compound 578] | – | – | 4 nM | 22 nM | –
48 | CC(C)(N)c1cccc(CC(=O)Nc2ccc(CCCCc3nnc(NC(=O)Cc4ccccc4)s3)nn2)c1 [Compound 633] | – | – | 7 nM | 130 nM | –
49 | O=C(Cc1ccccc1)Nc1ccc(CCCCc2nnc(NC(=O)Nc3ccccc3)s2)nn1 [Compound 419] | – | – | 24 nM | 64 nM | –
50 | O=C(Cc1ccccc1)Nc1ccc(CCCCc2nnc(NC(=O)Cc3ccc(Cl)c(Cl)c3)s2)nn1 [Compound 548] | – | – | 10 nM | 85 nM | –
51 | CCNC(=O)NCc1cccc(CC(=O)Nc2nnc(CCCCc3ccc(NC(=O)Cc4ccccc4)nn3)s2)c1 [Compound 453] | – | – | 3 nM | 15 nM | –
52 | CC(C)C(=O)NC(C)c1cccc(CC(=O)Nc2ccc(CCCCc3nnc(NC(=O)Cc4ccccc4)s3)nn2)c1 (centres unmarked) [Compound 620] | – | – | 5 nM | 11 nM | –
